# Results from patent publication US20090047243A1, “COMBINATIONS FOR THE TREATMENT OF B-CELL PROLIFERATIVE DISORDERS” (priority 2007, published 2009).
# Legend:
# [1] = system: H929 multiple myeloma cell line; assay: Anti-proliferation assay (ATPLite, 72 h); format: cell-based, human; design: key: S = lnfX·lnfY·ΣIdata(Idata−ILoewe), volume over Loewe additivity
# Method in brief: (§1)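 Cell viability was read by ATPLite luminescence after compound exposure. ANBL6 medium carried 10 ng/ml IL-6. Compounds were serially diluted 2- or 3-fold over 12 concentrations for single-agent curves, and percent inhibition was calculated relative to the mean of untreated wells.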
# [2] = system: RPMI-8226 multiple myeloma cell line; assay: Anti-proliferation assay (ATPLite, 72 h); format: cell-based, human; design: key: S = lnfX·lnfY·ΣIdata(Idata−ILoewe), volume over Loewe additivity
# Method in brief: as §1
# [3] = system: human multiple myeloma cells (MM.1S); assay: Anti-proliferation assay (ATPLite, 72 h); format: cell-based; design: key to synergy score / synergy (score), PDEi × HE-NECA: S = lnfX·lnfY·ΣIdata(Idata−ILoewe), volume over Loewe additivity
# Method in brief: as §1
# [4] = system: human multiple myeloma cells (MM.1R); assay: Anti-proliferation assay (ATPLite, 72 h); format: cell-based; design: key: S = lnfX·lnfY·ΣIdata(Idata−ILoewe), volume over Loewe additivity
# Method in brief: as §1
# ANBL6 MM cell line = assay: Anti-proliferation assay (ATPLite, 72 h); format: cell-based, human; details: CGS-21680 × PDE inhibitor
# Description: (§2) ANBL6 and INA-6 culture media was also supplemented with 10 ng/ml IL-6. […] MM.1S, MM.1R, OCI-ly10, Karpas 422, and SU-DHL6 cells were provided by the Dana Farber Cancer Institute. H929, RPMI-8226, GA-10, and Farage cells were from ATCC (Cat #'s CCL-155, CRL-9068, CRL-2392 and CRL-2630 respectively). MOLP-8, EJM, KSM-12-PE, and OPM2 were from DSMZ. The ANBL6 and INA-6 cell lines were provided by the M. D. Anderson Cancer Research Center. Compounds were prepared in DMSO at 1000× the highest desired concentration. Master plates were generated consisting of serially diluted compounds in 2- or 3-fold dilutions in 384-well format. For single agent dose response curves, the master plates consisted of 9 individual compounds at 12 concentrations in 2- or 3-fold dilutions. For combination matrices, master plates consisted of individual compounds at 6 or 9 concentrations at 2- or 3-fold dilutions. […] To obtain combination data, two master plates were diluted into the assay plates. […] Thirty microliters of ATPLite (Perkin Elmer) at room temperature was then added to each well. […] Measurements were taken at the top of the well using a luminescence aperture and a read time of 0.1 seconds per well. The percent inhibition (% I) for each well was calculated using the following formula: % I=[(avg. untreated wells-treated well)/(avg. untreated wells)]×100. […] Negative inhibition values result from local variations in treated wells as compared to untreated wells. […] The uncertainty of each fitted parameter was estimated from the range over which the change in reduced chi-squared was less than one, or less than minimum reduced chi-squared if that minimum exceeded one, to allow for underestimated σI errors. Single agent curve data were used to define a dilution series for each compound to be used for combination screening in a 6×6 matrix format. […] The Loewe additivity model was used to quantify combination effects. […] A “Synergy Score” was also used, where the Synergy Score S=log fX log fY ΣIdata(Idata-ILoewe), summed over all non-single-agent concentration pairs, and where log fX,Y is the natural logarithm of the dilution factors used for each single agent. This effectively calculates a volume between the measured and Loewe additive response surfaces, weighted towards high inhibition and corrected for varying dilution factors. An uncertainty σS was calculated for each synergy score, based on the measured errors for the Idata values and standard error propagation.
# EJM MM cell line = assay: Anti-proliferation assay (ATPLite, 72 h); format: cell-based, human; details: CGS-21680 × PDE inhibitor
# Description: as §2
# INA-6 MM cell line = assay: Anti-proliferation assay (ATPLite, 72 h); format: cell-based, human; details: CGS-21680 × PDE inhibitor
# Description: as §2
# KSM-12-PE MM cell line = assay: Anti-proliferation assay (ATPLite, 72 h); format: cell-based, human; details: CGS-21680 × PDE inhibitor
# Description: as §2
# MOLP-8 MM cell line = assay: Anti-proliferation assay (ATPLite, 72 h); format: cell-based, human; details: CGS-21680 × PDE inhibitor
# Description: as §2
# OPM2 MM cell line = assay: Anti-proliferation assay (ATPLite, 72 h); format: cell-based, human; details: CGS-21680 × PDE inhibitor
# Description: as §2
# patient CLL cells = assay: Apoptosis assay (Hoechst 33342, flow cytometry, 48 h); format: cell-based, human; design: unit not given here; details: CGS-21680 0 μM
# Excerpt: Blood samples were obtained in heparinized tubes with IRB-approved consent from flow cytometry-confirmed B-CLL patients that were either untreated or for whom at least 1 month had elapsed since chemotherapy. Patients with active infections or other serious medical conditions were not included in this study. Patients with white blood cell counts of less than 15,000/μl by automated analysis were excluded from this study. Whole blood was layered on Ficoll-Hystopaque (Sigma), and peripheral blood mononuclear cells (PBMC) isolated after centrification. […] One million cells were stained with anti-CD5-PE and anti-CD19-PE-Cy5 (Becton Dickenson, Franklin Lakes N.J.). The percentage of B-CLL cells was defined as the percentage of cells doubly expressing CD5 and CDl9, as determined by flow cytometry. […] Compound master plates were diluted 1:50 into complete media to create working compound dilutions. Compound crosses were then created by diluting two working dilution plates 1:10 into each plate of cells. […] Hoechst 33342 (Molecular Probes, Eugene Oreg.) at a final concentration of 0.25 μg/1 mL was added to each well, and the cells incubated at 37° C. for an additional ten minutes before being placed on ice until analysis. Plates were then analyzed on a LSR-II flow cytometer (Becton Dickenson, Franklin Lakes, N.J.) equipped with the High Throughput Sampling (HTS) option in high throughput mode. […] The apoptotic fraction was calculated using FlowJo software (Tree Star Inc., Ashland, Oreg.) after excluding debris by a FSC/SSC gate and subsequently gating for cells that accumulate the Hoechst dye.
# [5] = system: phosphodiesterase (PDE) types; details: PDE type(s) in brackets after the name; cited from earlier work
smiles,measurement,setting,value
"O=C(Nc1c(Cl)cncc1Cl)c1ccc(OC(F)F)c(OCC2CC2)c1 [Roflumilast, 3-(cyclopropylmethoxy)-N-(3,5-dichloro-4-pyridinyl)-4-(difluoromethoxy)-benzamide]",synergy score,"[1]; PDE inhibitor crossed with (S) ENBA, H929",1.77
same,synergy score,"[1]; PDE inhibitor crossed with Chloro-IB-MECA, H929",1.16
same,synergy score,"[1]; PDE inhibitor crossed with HE-NECA, H929",0.98
same,synergy score,"[1]; in combination with adenosine receptor agonist CGS-21680, H929",3.71
same,synergy score,"[1]; in combination with adenosine receptor agonist HE-NECA, H929",0.98
same,synergy score,"[1]; in combination with adenosine receptor agonist regadenoson, H929",2.7
same,synergy score,"[2]; in combination with adenosine receptor agonist CGS-21680, RPMI 8226",0.69
same,synergy score,"[2]; in combination with adenosine receptor agonist HE-NECA, RPMI-8226",0.466
same,synergy score,"[2]; in combination with adenosine receptor agonist regadenoson, RPMI 8226",1.12
same,inhibition at 0.0631 µM,"[3]; Homo sapiens, MM1.S, Roflumilast 0.0631 μM, Cl-IB-MECA conc. (μM), read-out: Percent inhibition of ATP in MM.1S cells",-7.1%
same,inhibition at 0.126 µM,"[3]; Homo sapiens, MM1.S, Roflumilast 0.126 μM, Cl-IB-MECA conc. (μM), read-out: Percent inhibition of ATP in MM.1S cells",1.5%
same,inhibition at 0.252 µM,"[3]; Homo sapiens, MM1.S, Roflumilast 0.252 μM, Cl-IB-MECA conc. (μM), read-out: Percent inhibition of ATP in MM.1S cells",-3.5%
same,inhibition at 0.505 µM,"[3]; Homo sapiens, MM1.S, Roflumilast 0.505 μM, Cl-IB-MECA conc. (μM), read-out: Percent inhibition of ATP in MM.1S cells",11%
same,inhibition at 1.01 µM,"[3]; Homo sapiens, MM1.S, Roflumilast 1.01 μM, Cl-IB-MECA conc. (μM), read-out: Percent inhibition of ATP in MM.1S cells",7.5%
same,synergy score,"[3]; PDE inhibitor crossed with (S) ENBA, MM.1S",2.19
same,synergy score,"[3]; PDE inhibitor crossed with Chloro-IB-MECA, MM.1S",2.12
same,synergy score,"[3]; PDE inhibitor crossed with HE-NECA, MM.1S",2
same,synergy score,"[3]; in combination with adenosine receptor agonist CGS-21680, MM.1S",3.82
same,synergy score,"[3]; in combination with adenosine receptor agonist HE-NECA, MM.1S",2
same,synergy score,"[3]; in combination with adenosine receptor agonist regadenoson, MM.1S",3.56
same,synergy score,"[4]; in combination with adenosine receptor agonist CGS-21680, MM.1R",3.61
same,synergy score,"[4]; in combination with adenosine receptor agonist regadenoson, MM.1R",5.83
same,synergy score,ANBL6 MM cell line,3.73
same,synergy score,EJM MM cell line,1.06
same,synergy score,INA-6 MM cell line,2.62
same,synergy score,KSM-12-PE MM cell line,0.27
same,synergy score,MOLP-8 MM cell line,3.44
same,synergy score,OPM2 MM cell line,0.29
same,Induction of apoptosis,patient CLL cells; Roflumilast 0.03 μM,17
same,Induction of apoptosis,patient CLL cells; Roflumilast 0.09 μM,26
same,Induction of apoptosis,patient CLL cells; Roflumilast 0.27 μM,32
same,PDE inhibitors (specificity),[5],Roflumilast (4)
